Data from ChEMBL document CHEMBL1201862, “PubChem BioAssay data set” (2004).
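These data come from cells grown in 96-well plates and exposed to compound for 48 hours at five concentrations. GI50 marks 50% less growth.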 The source made the active and inactive calls. Cut-off read from the data, not from the text of the source: active = GI50 up to about 1.1 µM and inactive = higher.

What was measured:
Experiment in all cases: inhibition of tumour cell growth, NCI panel, 48 h
SW-620 = system: SW-620
UACC-257 = system: UACC-257
786-0 = system: 786-0
HT-29 = system: HT-29
OVCAR-8 = system: OVCAR-8
RXF 393 = system: RXF 393
OVCAR-5 = system: OVCAR-5
MOLT-4 = system: MOLT-4
CAKI-1 = system: CAKI-1
COLO 205 = system: COLO 205
SK-MEL-28 = system: SK-MEL-28
CCRF-CEM = system: CCRF-CEM
SF-268 = system: SF-268
NCI-H460 = system: NCI-H460
ACHN = system: ACHN
SF-295 = system: SF-295
HL-60 = system: HL-60
NCI-H522 = system: NCI-H522
MCF7 = system: MCF7

Compound | GI50 (SW-620) | GI50 (UACC-257) | GI50 (786-0) | GI50 (HT-29) | GI50 (OVCAR-8) | GI50 (RXF 393) | GI50 (OVCAR-5) | GI50 (MOLT-4) | GI50 (CAKI-1) | GI50 (COLO 205) | GI50 (SK-MEL-28) | GI50 (CCRF-CEM) | GI50 (SF-268) | GI50 (NCI-H460) | GI50 (ACHN) | GI50 (SF-295) | GI50 (HL-60) | GI50 (NCI-H522) | GI50 (MCF7)
Oc1cc(-c2ccccc2)nc2cc(Cl)ccc12 | 0.34 µM (active) | 14.1 µM (inactive) | 0.507 µM (active) | 2 µM (inactive) | 0.74 µM (active) | 0.157 µM (active) | > 100 µM (inactive) | 0.675 µM (active) | 0.283 µM (active) | 0.697 µM (active) | 17.9 µM (inactive) | 0.432 µM (active) | 1.21 µM (inactive) | 0.417 µM (active) | 0.914 µM (active) | 0.368 µM (active) | 0.24 µM (active) | 0.112 µM (active) | –
COC(=O)N/N=C(/CCN1CCCC1)CC(c1ccccc1)c1c(O)c2ccccc2oc1=O (stereo unspecified) | > 100 µM (inactive) | > 100 µM (inactive) | > 100 µM (inactive) | > 100 µM (inactive) | > 100 µM (inactive) | > 100 µM (inactive) | > 100 µM (inactive) | > 100 µM (inactive) | > 100 µM (inactive) | > 100 µM (inactive) | > 100 µM (inactive) | > 100 µM (inactive) | > 100 µM (inactive) | > 100 µM (inactive) | > 100 µM (inactive) | > 100 µM (inactive) | > 100 µM (inactive) | > 100 µM (inactive) | –
O=c1cc2n(c(=O)[nH]1)C1OC(C(O)C1O)[C@H]2CCO (stereo partly specified) | > 100 µM (inactive) | > 100 µM (inactive) | > 100 µM (inactive) | > 100 µM (inactive) | > 100 µM (inactive) | > 100 µM (inactive) | > 100 µM (inactive) | > 100 µM (inactive) | > 100 µM (inactive) | > 100 µM (inactive) | > 100 µM (inactive) | > 100 µM (inactive) | > 100 µM (inactive) | > 100 µM (inactive) | > 100 µM (inactive) | > 100 µM (inactive) | > 100 µM (inactive) | > 100 µM (inactive) | –
CC(=O)NNc1ncc(C(=O)/C=C/c2ccccc2C)s1 | > 100 µM (inactive) | > 100 µM (inactive) | > 100 µM (inactive) | > 100 µM (inactive) | > 100 µM (inactive) | > 100 µM (inactive) | > 100 µM (inactive) | > 100 µM (inactive) | > 100 µM (inactive) | > 100 µM (inactive) | > 100 µM (inactive) | > 100 µM (inactive) | > 100 µM (inactive) | > 100 µM (inactive) | > 100 µM (inactive) | > 100 µM (inactive) | > 100 µM (inactive) | > 100 µM (inactive) | –
CCOc1ccc(N(CC(=O)N2CC(=O)Nc3cc(C)c(C)cc32)C(C)=O)cc1 | > 100 µM (inactive) | > 100 µM (inactive) | > 100 µM (inactive) | > 100 µM (inactive) | > 100 µM (inactive) | > 100 µM (inactive) | > 100 µM (inactive) | > 100 µM (inactive) | > 100 µM (inactive) | > 100 µM (inactive) | > 100 µM (inactive) | > 100 µM (inactive) | 87.5 µM (inactive) | > 100 µM (inactive) | > 100 µM (inactive) | > 100 µM (inactive) | > 100 µM (inactive) | > 100 µM (inactive) | –
CC(C)/C=C1\CCC(CN2CCCC2)C1=O (stereo unspecified) | 2.44 µM (inactive) | 17.7 µM (inactive) | 2.01 µM (inactive) | 9.73 µM (inactive) | 10.4 µM (inactive) | 16 µM (inactive) | 20 µM (inactive) | 3.63 µM (inactive) | 5.16 µM (inactive) | 7.05 µM (inactive) | 17.5 µM (inactive) | 3.48 µM (inactive) | 22.3 µM (inactive) | 39 µM (inactive) | 18.2 µM (inactive) | 42.6 µM (inactive) | 3.51 µM (inactive) | 1.95 µM (inactive) | –
O=C1C2C(C(=O)N1Cc1ccccc1)N(Cc1ccccc1)C(=O)N2Cc1ccccc1 (stereo unspecified) | > 100 µM (inactive) | > 100 µM (inactive) | > 100 µM (inactive) | > 100 µM (inactive) | > 100 µM (inactive) | > 100 µM (inactive) | > 100 µM (inactive) | > 100 µM (inactive) | > 100 µM (inactive) | > 100 µM (inactive) | > 100 µM (inactive) | > 100 µM (inactive) | > 100 µM (inactive) | > 100 µM (inactive) | > 100 µM (inactive) | > 100 µM (inactive) | > 100 µM (inactive) | > 100 µM (inactive) | –
Cc1nn(C(=O)Cc2ccccc2)c2c1C(c1ccc(O)cc1)SC(=N)N2 (stereo unspecified) | > 100 µM (inactive) | > 100 µM (inactive) | > 100 µM (inactive) | > 100 µM (inactive) | > 100 µM (inactive) | – | – | > 100 µM (inactive) | > 100 µM (inactive) | > 100 µM (inactive) | > 100 µM (inactive) | > 100 µM (inactive) | > 100 µM (inactive) | > 100 µM (inactive) | > 100 µM (inactive) | > 100 µM (inactive) | > 100 µM (inactive) | > 100 µM (inactive) | > 100 µM (inactive)
COc1cccc(/C=N/C23CC4CC(CC(C4)C2)C3)c1 | > 100 µM (inactive) | > 100 µM (inactive) | > 100 µM (inactive) | > 100 µM (inactive) | > 100 µM (inactive) | > 100 µM (inactive) | > 100 µM (inactive) | > 100 µM (inactive) | > 100 µM (inactive) | > 100 µM (inactive) | > 100 µM (inactive) | > 100 µM (inactive) | > 100 µM (inactive) | > 100 µM (inactive) | > 100 µM (inactive) | > 100 µM (inactive) | > 100 µM (inactive) | > 100 µM (inactive) | –
O=C(c1cc(Cl)ccc1Cl)N1CCN(C(=O)c2cc(Cl)ccc2Cl)CC1 | > 100 µM (inactive) | > 100 µM (inactive) | 91.2 µM (inactive) | > 100 µM (inactive) | 30.2 µM (inactive) | 67.1 µM (inactive) | > 100 µM (inactive) | > 100 µM (inactive) | 97.9 µM (inactive) | – | > 100 µM (inactive) | > 100 µM (inactive) | > 100 µM (inactive) | > 100 µM (inactive) | 94.4 µM (inactive) | 91 µM (inactive) | > 100 µM (inactive) | 34.4 µM (inactive) | > 100 µM (inactive)
O=C1C(=Cc2ccc(O)cc2)N=C(c2ccccc2)N1n1c(-c2ccccc2)nc2ccccc2c1=O | > 100 µM (inactive) | > 100 µM (inactive) | > 100 µM (inactive) | 72.8 µM (inactive) | > 100 µM (inactive) | – | – | 78.7 µM (inactive) | > 100 µM (inactive) | > 100 µM (inactive) | 88.9 µM (inactive) | 32 µM (inactive) | > 100 µM (inactive) | – | – | > 100 µM (inactive) | 40.6 µM (inactive) | 50 µM (inactive) | 30.9 µM (inactive)
CCOc1cn(C2OC(CO)C(O)C2O)c(=O)[nH]c1=O (stereo unspecified) | 31.3 µM (inactive) | > 100 µM (inactive) | > 100 µM (inactive) | > 100 µM (inactive) | > 100 µM (inactive) | > 100 µM (inactive) | > 100 µM (inactive) | > 100 µM (inactive) | > 100 µM (inactive) | 95.5 µM (inactive) | > 100 µM (inactive) | > 100 µM (inactive) | > 100 µM (inactive) | > 100 µM (inactive) | > 100 µM (inactive) | > 100 µM (inactive) | > 100 µM (inactive) | > 100 µM (inactive) | –
O=c1/c(=C/c2ccc(Cl)cc2Cl)sc2nc3ccccc3n12 | > 100 µM (inactive) | > 100 µM (inactive) | > 100 µM (inactive) | > 100 µM (inactive) | > 100 µM (inactive) | > 100 µM (inactive) | > 100 µM (inactive) | > 100 µM (inactive) | > 100 µM (inactive) | > 100 µM (inactive) | > 100 µM (inactive) | > 100 µM (inactive) | > 100 µM (inactive) | > 100 µM (inactive) | > 100 µM (inactive) | > 100 µM (inactive) | > 100 µM (inactive) | > 100 µM (inactive) | –
CCc1cccc(C)c1NC(=O)CCc1nnc(SC)o1 | > 100 µM (inactive) | > 100 µM (inactive) | > 100 µM (inactive) | > 100 µM (inactive) | > 100 µM (inactive) | > 100 µM (inactive) | > 100 µM (inactive) | > 100 µM (inactive) | > 100 µM (inactive) | > 100 µM (inactive) | > 100 µM (inactive) | > 100 µM (inactive) | > 100 µM (inactive) | > 100 µM (inactive) | > 100 µM (inactive) | > 100 µM (inactive) | > 100 µM (inactive) | > 100 µM (inactive) | –
CO[C@H]1CC[C@]2(C)C3=CC[C@@]4(C)C(CC[C@@H]4C(C)CC[C@@H](C)C(C)C)C(=CCC2C1)O3 (stereo partly specified) | > 25 µM (inactive) | > 25 µM (inactive) | > 25 µM (inactive) | > 25 µM (inactive) | > 25 µM (inactive) | > 25 µM (inactive) | > 25 µM (inactive) | > 25 µM (inactive) | 10.2 µM (inactive) | > 25 µM (inactive) | > 25 µM (inactive) | > 25 µM (inactive) | > 25 µM (inactive) | > 25 µM (inactive) | > 25 µM (inactive) | > 25 µM (inactive) | > 25 µM (inactive) | > 25 µM (inactive) | –
